Assay results: ChEMBL document CHEMBL4325853, “Design, synthesis and antibacterial evaluation of 2,4-disubstituted-6-thiophenyl-pyrimidines” (Eur J Med Chem, 2019)

Experiments:
Assay type in all cases: functional
[1] = test system: Staphylococcus aureus; experiment: Antibacterial activity against methicillin-resistant Staphylococcus aureus isolate 7864 after 18 hrs by broth microdilution method; conditions: isolate 7864, 18 h
[2] = test system: Staphylococcus aureus; experiment: Antibacterial activity against methicillin-resistant Staphylococcus aureus ATCC 33592 after 18 hrs by broth microdilution method; conditions: ATCC 33592, 18 h
[3] = test system: Enterococcus faecium; experiment: Antibacterial activity against Enterococcus faecium ATCC 49624 after 18 hrs by broth microdilution method; conditions: ATCC 49624, 18 h
[4] = test system: Staphylococcus aureus; experiment: Antibacterial activity against methicillin-resistant Staphylococcus aureus isolate 7947 after 18 hrs by broth microdilution method; conditions: isolate 7947, 18 h
[5] = test system: Staphylococcus aureus; experiment: Antibacterial activity against methicillin-resistant Staphylococcus aureus isolate 1708 after 18 hrs by broth microdilution method; conditions: isolate 1708, 18 h
[6] = test system: Staphylococcus aureus; experiment: Antibacterial activity against methicillin-resistant Staphylococcus aureus ATCC 43300 after 18 hrs by broth microdilution method; conditions: ATCC 43300, 18 h
[7] = test system: Staphylococcus aureus; experiment: Antibacterial activity against methicillin-resistant Staphylococcus aureus isolate 7943 after 18 hrs by broth microdilution method; conditions: isolate 7943, 18 h
[8] = test system: Staphylococcus aureus; experiment: Antibacterial activity against methicillin-resistant Staphylococcus aureus isolate 7972 after 18 hrs by broth microdilution method; conditions: isolate 7972, 18 h
[9] = test system: Staphylococcus aureus; experiment: Antibacterial activity against methicillin-resistant Staphylococcus aureus isolate 1220 after 18 hrs by broth microdilution method; conditions: isolate 1220, 18 h
[10] = test system: Staphylococcus aureus; experiment: Antibacterial activity against methicillin-resistant Staphylococcus aureus isolate 3123 after 18 hrs by broth microdilution method; conditions: isolate 3123, 18 h
[11] = test system: Staphylococcus aureus; experiment: Antibacterial activity against methicillin-resistant Staphylococcus aureus isolate 7917 after 18 hrs by broth microdilution method; conditions: isolate 7917, 18 h
[12] = test system: Staphylococcus aureus; experiment: Antibacterial activity against methicillin-resistant Staphylococcus aureus isolate 8071 after 18 hrs by broth microdilution method; conditions: isolate 8071, 18 h
[13] = test system: Staphylococcus aureus; experiment: Antibacterial activity against methicillin-resistant Staphylococcus aureus isolate 4548 after 18 hrs by broth microdilution method; conditions: isolate 4548, 18 h
[14] = test system: Staphylococcus aureus; experiment: Antibacterial activity against methicillin-resistant Staphylococcus aureus isolate 2491 after 18 hrs by broth microdilution method; conditions: isolate 2491, 18 h
[15] = test system: Staphylococcus aureus; experiment: Antibacterial activity against methicillin-resistant Staphylococcus aureus ATCC BAA1720 after 18 hrs by broth microdilution method; conditions: ATCC BAA1720, 18 h
[16] = test system: Staphylococcus aureus; experiment: Antibacterial activity against methicillin-resistant Staphylococcus aureus isolate 6515 after 18 hrs by broth microdilution method; conditions: isolate 6515, 18 h
[17] = test system: Staphylococcus aureus; experiment: Antibacterial activity against methicillin-resistant Staphylococcus aureus isolate 1610 after 18 hrs by broth microdilution method; conditions: isolate 1610, 18 h
[18] = test system: Staphylococcus aureus; experiment: Antibacterial activity against methicillin-resistant Staphylococcus aureus isolate 1651 after 18 hrs by broth microdilution method; conditions: isolate 1651, 18 h
[19] = test system: Staphylococcus aureus; experiment: Antibacterial activity against methicillin-resistant Staphylococcus aureus isolate 7587 after 18 hrs by broth microdilution method; conditions: isolate 7587, 18 h
[20] = test system: Staphylococcus aureus; experiment: Antibacterial activity against methicillin-resistant Staphylococcus aureus isolate 7449 after 18 hrs by broth microdilution method; conditions: isolate 7449, 18 h
[21] = test system: Staphylococcus aureus; experiment: Antibacterial activity against methicillin-resistant Staphylococcus aureus isolate 5035 after 18 hrs by broth microdilution method; conditions: isolate 5035, 18 h
[22] = test system: Staphylococcus aureus; experiment: Antibacterial activity against methicillin-resistant Staphylococcus aureus isolate 2671 after 18 hrs by broth microdilution method; conditions: isolate 2671, 18 h
[23] = test system: Staphylococcus aureus; experiment: Antibacterial activity against methicillin-resistant Staphylococcus aureus isolate 4127 after 18 hrs by broth microdilution method; conditions: isolate 4127, 18 h
[24] = test system: Staphylococcus aureus; experiment: Antibacterial activity against methicillin-resistant Staphylococcus aureus isolate 5056 after 18 hrs by broth microdilution method; conditions: isolate 5056, 18 h
[25] = test system: Staphylococcus aureus; experiment: Antibacterial activity against methicillin-resistant Staphylococcus aureus isolate 7916 after 18 hrs by broth microdilution method; conditions: isolate 7916, 18 h
[26] = test system: Staphylococcus aureus; experiment: Antibacterial activity against methicillin-resistant Staphylococcus aureus isolate 7664 after 18 hrs by broth microdilution method; conditions: isolate 7664, 18 h
[27] = test system: Staphylococcus aureus; experiment: Antibacterial activity against methicillin-resistant Staphylococcus aureus isolate 7247 after 18 hrs by broth microdilution method; conditions: isolate 7247, 18 h
[28] = test system: Staphylococcus aureus; experiment: Antibacterial activity against methicillin-resistant Staphylococcus aureus isolate 7844 after 18 hrs by broth microdilution method; conditions: isolate 7844, 18 h
[29] = test system: Staphylococcus aureus; experiment: Antibacterial activity against methicillin-resistant Staphylococcus aureus isolate 1947 after 18 hrs by broth microdilution method; conditions: isolate 1947, 18 h
[30] = test system: Staphylococcus aureus; experiment: Antibacterial activity against methicillin-resistant Staphylococcus aureus isolate 7807 after 18 hrs by broth microdilution method; conditions: isolate 7807, 18 h
[31] = test system: Staphylococcus aureus; experiment: Antibacterial activity against methicillin-resistant Staphylococcus aureus isolate 7682 after 18 hrs by broth microdilution method; conditions: isolate 7682, 18 h
[32] = test system: Staphylococcus aureus; experiment: Antibacterial activity against methicillin-resistant Staphylococcus aureus isolate 2931 after 18 hrs by broth microdilution method; conditions: isolate 2931, 18 h
[33] = test system: Staphylococcus aureus; experiment: Antibacterial activity against methicillin-resistant Staphylococcus aureus isolate 3096 after 18 hrs by broth microdilution method; conditions: isolate 3096, 18 h
[34] = test system: Enterococcus faecalis; experiment: Antibacterial activity against vancomycin-resistant Enterococcus faecalis ATCC 51575 after 18 hrs by broth microdilution method; conditions: ATCC 51575, 18 h
[35] = test system: Staphylococcus aureus; experiment: Antibacterial activity against methicillin-resistant Staphylococcus aureus isolate 6334 after 18 hrs by broth microdilution method; conditions: isolate 6334, 18 h
[36] = test system: Enterococcus faecalis; experiment: Antibacterial activity against Enterococcus faecalis ATCC 29212 after 18 hrs by broth microdilution method; conditions: ATCC 29212, 18 h
[37] = test system: Staphylococcus aureus; experiment: Antibacterial activity against methicillin-resistant Staphylococcus aureus isolate 7971 after 18 hrs by broth microdilution method; conditions: isolate 7971, 18 h
[38] = test system: Staphylococcus aureus; experiment: Antibacterial activity against methicillin-resistant Staphylococcus aureus isolate 4955 after 18 hrs by broth microdilution method; conditions: isolate 4955, 18 h
[39] = test system: Staphylococcus aureus; experiment: Potency index, ratio of methicillin MIC to test compound MIC for methicillin-resistant Staphylococcus aureus ATCC 33592
[40] = test system: Staphylococcus epidermidis; experiment: Potency index, ratio of berberine MIC to test compound MIC for Staphylococcus epidermidis ATCC 12228
[41] = test system: Enterococcus faecalis; experiment: Ratio of MBC to MIC for vancomycin-resistant Enterococcus faecalis ATCC 700221
[42] = test system: Enterococcus faecium; experiment: Potency index, ratio of berberine MIC to test compound MIC for Enterococcus faecium ATCC 49624
[43] = test system: Staphylococcus aureus; experiment: Potency index, ratio of methicillin MIC to test compound MIC for methicillin-resistant Staphylococcus aureus ATCC BAA1720
[44] = test system: Staphylococcus aureus; experiment: Potency index, ratio of berberine MIC to test compound MIC for Staphylococcus aureus ATCC 29213
[45] = test system: Staphylococcus aureus; experiment: Potency index, ratio of methicillin MIC to test compound MIC for methicillin-resistant Staphylococcus aureus ATCC 33591
[46] = test system: Staphylococcus aureus; experiment: Potency index, ratio of methicillin MIC to test compound MIC for methicillin-resistant Staphylococcus aureus ATCC BAA41
[47] = test system: Staphylococcus aureus; experiment: Bactericidal activity against methicillin-resistant Staphylococcus aureus ATCC BAA41 after 18 hrs by broth microdilution method; conditions: ATCC BAA41, 18 h

COc1cccc(OC)c1C(=O)N[C@@H]1C(=O)N2[C@@H]1SC(C)(C)[C@@H]2C(=O)O [METHICILLIN]
4 µg/mL: MIC90 [3]
6 µg/mL: MIC90 [34] | MIC90 [36]
> 64 µg/mL: MIC90 [1] | MIC90 [4] | MIC90 [5] | MIC90 [7] | MIC90 [8] | MIC90 [9] | MIC90 [10] | MIC90 [11] | MIC90 [12] | MIC90 [13] | MIC90 [14] | MIC90 [16] | MIC90 [17] | MIC90 [18] | MIC90 [19] | MIC90 [20] | MIC90 [21] | MIC90 [22] | MIC90 [23] | MIC90 [24] | MIC90 [25] | MIC90 [26] | MIC90 [27] | MIC90 [28] | MIC90 [29] | MIC90 [30] | MIC90 [31] | MIC90 [32] | MIC90 [33] | MIC90 [35] | MIC90 [37] | MIC90 [38]
> 192 µg/mL: MIC90 [2] | MIC90 [6] | MIC90 [15]

FC(F)(F)c1ccc(CN2CCCN(CCc3cc(-c4cccs4)nc(-c4ccncc4)n3)CC2)cc1
>100: Ratio [39] | Ratio [43] | Ratio [45] | Ratio [46]
4 µg/mL: MIC90 [1] | MIC90 [2] | MIC90 [3] | MIC90 [4] | MIC90 [6] | MIC90 [7] | MIC90 [8] | MIC90 [9] | MIC90 [10] | MIC90 [11] | MIC90 [12] | MIC90 [13] | MIC90 [15] | MIC90 [16] | MIC90 [19] | MIC90 [20] | MIC90 [21] | MIC90 [22] | MIC90 [23] | MIC90 [24] | MIC90 [25] | MIC90 [26] | MIC90 [27] | MIC90 [28] | MIC90 [29] | MIC90 [30] | MIC90 [32] | MIC90 [33] | MIC90 [34] | MIC90 [35] | MIC90 [36] | MIC90 [37] | MIC90 [38] | MBC [47]
2: Ratio [41]
50 - 100: Ratio [40] | Ratio [42] | Ratio [44]
8 µg/mL: MIC90 [5] | MIC90 [14] | MIC90 [17] | MIC90 [18] | MIC90 [31]
